Type in all cases: cell-based
Test [1] has as its system pS6K1 in MCF7 (measure of mTORC1 activity). Description: AlphaLISA Ultra pS6K1 assay. The conditions noted are these: Homo sapiens, MCF7, 2 h, MCF-7 cells, 2 hours compound incubation. Summed up:
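MCF7 cells, refreshed medium 2 h, treated with compound 2 h at 0.5% DMSO final, then lysed. Phospho-S6K1 in lysates detected by AlphaLISA Ultra (acceptor beads 2 h, donor beads 2 h), read as Alpha signal on a multimode reader.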
(Bead proximity is the source of the signal in Alpha formats.)

The test system of test [2] is pAKT in MCF7 (measure of mTORC2 activity). Description: AlphaLISA Ultra pAKT assay. The conditions noted are these: Homo sapiens, MCF7, 2 h, MCF-7 cells, 2 hours compound incubation. Summed up: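 MCF7 cells, 16,000-20,000 per well, treated with compound for 2 h at 0.5% final DMSO, then lysed. Phospho-AKT, as a readout of mTORC2 activity, measured by AlphaLISA Ultra with acceptor beads and then donor beads, 2 h each.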

Test [3] deals with Glucose uptake in MCF-7 cells. Description: Radioactive glucose uptake in MCF-7 cells. The conditions noted are these: Homo sapiens, MCF7, 3H-2DG uptake, 20 mins. How it is done:
Example 157: Radioactive Glucose Uptake in MCF-7 Cells
Assay Protocol • 1. Seed approximately 12,000 MCF-7 cells cultured without insulin per well in 96-well plates (BIOCOAT, #356690) and let the cells sit in hood for 30 min. (Cell culture medium: DMEM+10% FBS). • 2. Put the cell culture plates in TC incubator (5% CO2, 37° C.) and incubate overnight. • 3. Take out the cell plates and wash with prewarmed KRH buffer (37° C.) three times using BioTek plate washer. (KRH buffer preparation: 136 mM NaCl, 4.7 mM KCl, 1.25 mM MgCl2, 1.2 mM CaCl2, 20 mM HEPES, 0.1 mg/ml sodium pyruvate, 0.1% BSA, pH 7.4). • 4. Compound preparation and treatment: • a) Add 12 ul compound stock in 100% DMSO to the first column of Echo LDV plate • b) Serially dilute the compound solution in 100% DMSO (4 uL+8 uL DMSO) using Bravo for 9 doses • c) Dispense 350 nL compounds using Echo to the working plate • d) i) Without compound preincubation condition, dispense 116 uL KRH buffer containing tritiated 2-deoxy-D-glucose (3H-2DG) and 2-deoxy-D-glucose (2DG) to the working plate and mix. • ii. With compound preincubation condition, dispense 110 uL KRH buffer only to the working plates and mix • e) Keep the compound working plate at 37° C. incubator until use • 5. Discard the KRH buffer (cells were kept in KRH buffer for 10-15 min before 2-DG addition) and transfer 100 uL compound working solution out to the cell culture plate using Bravo. Incubate for 20 mins at 37° C. (2DG final at 0.2 mM, 3H-2DG at 10 uCi/mL). • 6. Add prewarmed 50 uL KRH buffer (37° C.) containing 60 mM cold 2DG to the wells to stop the 2DG uptake using Multidrop combi • 7. Wash the cells with prewarmed PBS three times using BioTek plate washer • 8. Add 50 uL lysis buffer (0.1 M NaOH) into the assay plate to lyse the cells using Bravo and shake at 800 rpm for 30 min. • 9. Mix and transfer 20 uL lysate to a new white plate (Corning, #3610) and add 200 uL MicroScint-20 using Bravo • 10. Shake the plate at 1000 rpm for 30 min and count in a MicroBeta plate reader.

Here are results for ten compounds from patent US20190389843A1, “PYRROLE mTORC INHIBITORS AND USES THEREOF” (Navitor Pharmaceuticals, Inc., priority 2016, published 2019).

Structures can show the parent of a compound that is named as a salt. Where only a bound is given, the exact number is not on record here.

The IC50 is the concentration that gives 50% inhibition. Regarding `Cc1c(CN2CCN(c3ccccc3C#N)CC2)cc(C(=O)N2CCN(c3ccc(F)cn3)CC2)n1C` [Example I-63], the IC50 was 0.01 to 1 µM in test [1], over 0.3 µM in test [2] and 0.01 to 1 µM in test [3].

`Cc1c(CN2CCN(c3ccccc3Cl)CC2)cc(C(=O)N2CCN(c3ccc(F)cn3)CC2)n1C` [Example I-72]: the values for the IC50 in test [1], in test [2] and in test [3] were 0.01 to 1 µM, over 0.3 µM and 0.01 to 1 µM, respectively.

In the case of `Cc1c(CN2CCN(c3ccccc3Cl)CC2)cc(C(=O)N2CCn3c(cc4ccccc43)C2)n1C` [Example I-76, (4-((4-(2-chlorophenyl)piperazin-1-yl)methyl)-1,5-dimethyl-1H-pyrrol-2-yl)(3,4-dihydropyrazino[1,2-a]indol-2(1H)-yl)methanone], the values for the IC50 in test [1], in test [2] and in test [3] were 1 to 3 µM, over 5 µM and over 3 µM, respectively.

Regarding `Cc1c(CN2CCN(c3ccccc3Cl)CC2)cc(C(=O)N2CCN(c3cc(C#N)ccn3)CC2)n1C` [Example I-59], the results for the IC50 in test [1] and in test [2] were 1 to 3 µM and over 3 µM, respectively.

For `Cc1ccccc1N1CCN(Cc2cc(C(=O)N3CCN(c4ccccc4)CC3)n(C)c2)CC1` [Example I-134, (1-methyl-4-((4-o-tolylpiperazin-1-yl)methyl)-1H-pyrrol-2-yl)(4-phenylpiperazin-1-yl)methanone], the figures for the IC50 in test [1] and in test [2] were 1 to 3 µM and over 3 µM, respectively.

For `Cc1c(CN2CCN(c3ncccc3Cl)CC2)cc(C(=O)N2CCN(c3cccc(Cl)c3)C[C@@H]2C)n1C` [Example I-90, (S)-(4-(3-chlorophenyl)-2-methylpiperazin-1-yl)(4-((4-(3-chloropyridin-2-yl)piperazin-1-yl)methyl)-1,5-dimethyl-1H-pyrrol-2-yl)methanone], the IC50 in test [1] was 1 to 3 µM; in test [2], over 3 µM.

Take `Cc1c(CN2CCN(c3ccccc3CCCN)CC2)cc(C(=O)N2CCN(c3ccccc3)C[C@@H]2C)n1C` [Example I-24, (S)-(4-((4-(2-(3-aminopropyl)phenyl)piperazin-1-yl)methyl)-1,5-dimethyl-1H-pyrrol-2-yl)(2-methyl-4-phenylpiperazin-1-yl)methanone ditrifluoroacetate salt]: the IC50 in test [1] is 3 to 10 µM; in test [2], over 10 µM.

On to `Cc1c(CN2CCN(c3ccccc3C#N)CC2)cc(C(=O)N2CCN(c3oc(C4CC4)nc3C#N)CC2)n1C` [Example I-14], for which the results for the IC50 in test [1] and in test [2] were 0.01 to 1 µM and over 10 µM, respectively.

Consider `CC(=O)OCCn1cc(CN2CCN(c3ccccc3Cl)CC2)cc1C(=O)N1CCN(c2ccccc2)CC1` [Example I-148], for which the IC50 in test [1] is 1 to 3 µM; in test [2] it was over 10 µM.

Regarding `Cc1ccnc(N2CCN(C(=O)c3cc(CN4CCN(c5ccccc5Cl)CC4)c(C)n3C)CC2)c1` [Example I-70], the values for the IC50 in test [1] and in test [2] were 0.01 to 1 µM and over 3 µM, respectively.
